From article PMC11942905, “Identification of a Selective Inhibitor of Human NFS1, a Cysteine Desulfurase Involved in Fe-S Cluster Assembly, via Structure-Based Virtual Screening” (International Journal of Molecular Sciences, 2025)
“Also recorded” adds a separate entry of the source. One block for each compound: values may come before it.

Legend:
[1] = tested on: cysteine desulfurase activity of Plasmodium falciparum; set-up: method as in PMID 24709262; conditions: cited from earlier work
[2] = target: T1, human cystathionine-β-synthase (CBS) (Homo sapiens, UniProt P35520); assay: Selectivity assay, H2S-producing activity of CBS; type: biochemical; conditions: at 100 µM
T1 construct: made in house; host or cells: E. coli
T1 sequence (P35520 1-551): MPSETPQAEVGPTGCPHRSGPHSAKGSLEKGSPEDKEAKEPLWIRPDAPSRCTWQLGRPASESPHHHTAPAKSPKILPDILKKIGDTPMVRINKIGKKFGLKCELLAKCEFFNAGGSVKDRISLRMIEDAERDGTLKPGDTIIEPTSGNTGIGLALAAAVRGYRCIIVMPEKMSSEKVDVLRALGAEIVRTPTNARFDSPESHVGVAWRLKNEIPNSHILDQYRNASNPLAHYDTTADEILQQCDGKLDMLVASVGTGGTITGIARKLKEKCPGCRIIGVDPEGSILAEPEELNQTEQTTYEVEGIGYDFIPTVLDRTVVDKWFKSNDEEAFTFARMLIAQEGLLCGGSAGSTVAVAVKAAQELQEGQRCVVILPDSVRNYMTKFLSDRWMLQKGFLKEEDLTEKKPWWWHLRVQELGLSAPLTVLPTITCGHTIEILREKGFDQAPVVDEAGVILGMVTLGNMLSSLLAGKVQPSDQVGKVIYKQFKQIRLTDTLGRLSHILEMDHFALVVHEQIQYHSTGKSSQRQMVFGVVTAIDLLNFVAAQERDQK
Description: (§1) To evaluate the selectivity of Compounds 53 and 56, their effects on the activities of two other PLP-dependent enzymes, human cystathionine-β-synthase (CBS) and cystathionine-γ-lyase (CSE), were determined using a H2S-producing assay. Human CBS and CSE were expressed and purified in E. coli with a purity exceeding 90%, as confirmed by SDS-PAGE (Figures S4A and S5A). Subsequently, the H2S-producing activities of CBS and CSE were assessed in the presence of different concentrations of Compounds 53 and 56. A widely used CBS inhibitor, AOAA, and a specific CSE inhibitor, PAG, were used as positive controls (Figures S4B and S5B).
(§2) The H2S-producing activity of CBS was measured as previously described. The reaction mixture (200 μL) contained 50 mM of Hepes buffer (pH 7.4), 2 mM of homocysteine, 10 μM of PLP, 0.4 mM of lead nitrate, and 5 μg of CBS protein. It was preincubated at 37 °C for 3 min, and the reaction was initiated by the addition of 2 mM of cysteine. The reaction was monitored in a multifunctional microplate reader at 37 °C for 10 min. An extinction coefficient of 5500 M^−1 cm^−1 at 390 nm was used to calculate the lead sulfide concentration. The method used to determine CSE activity in the H2S-producing assay was identical to the CBS assay, except that 1 mM of cysteine was used as the sole substrate. […]

[3] = target: T2, cystathionine-γ-lyase (CSE) (Homo sapiens, UniProt P32929); assay: Selectivity assay, H2S-producing activity of CSE; type: biochemical; conditions: at 100 µM
T2 construct: made in house; host or cells: E. coli
Description: as §1, §2

A549 cells [4] = assay: CCK-8 cell viability assay, A549; type: cell-based, human; conditions: for IC50: Homo sapiens, A549, CCK-8, 72 h
Description: (§3) Human bronchial epithelial cells (BEAS-2B) and human lung adenocarcinoma A549 cells were purchased from the Institute of Biochemistry and Cell Biology, Chinese Academy of Sciences (Shanghai, China). BEAS-2B and A549 cells were cultured in DMEM supplemented with 10% (v/v) fetal bovine serum and 1% (v/v) penicillin–streptomycin solution at 37 °C in a humidified atmosphere containing 5% CO2. The half-maximal inhibitory concentration (IC50) values of the selected compounds against BEAS-2B and A549 cells were determined using the CCK-8 assay. Briefly, the cells were seeded into 96-well culture plates at a density of 5 × 10^3 cells per well. After 12 h of culture, fresh medium containing varying concentrations of the selected compounds dissolved in DMSO was added for an additional 72-hour incubation. Subsequently, 10 μL of CCK-8 solution was added to each well, followed by a further 1.5-h incubation at 37 °C. The optical density at 450 nm (OD450) for each well was measured using a microplate reader. Medium containing DMSO alone was used as the control group. Cell viability was calculated as the percentage of the OD450 of the experimental group compared to that of the control group, which was set at 100%.

BEAS-2B cells = assay: CCK-8 cell viability assay, BEAS-2B; type: cell-based; conditions: Homo sapiens, CCK-8, 72 h
Description: as §3

human NFS1 [5] = target: T3, human NFS1 (Homo sapiens, UniProt Q9Y697); set-up: method as in PMID 36103522; conditions: cited from earlier work
T3 construct: His tag (N); made in house; host or cells: E. coli BL21(DE3)

A549 cells [6] = assay: Endogenous ROS levels, DCFH-DA fluorescence; type: cell-based, human; conditions: 48 h, Compound 53 50 µM, Erastin 2.5 µM, 2-AAPA 20 µM
Description: Endogenous ROS levels in A549 cells were detected using the fluorescent dye DCFH-DA [48, 49]. A549 cells were cultured in DMEM supplemented with 10% fetal bovine serum at 37 °C in a humidified atmosphere containing 5% CO2. […] Subsequently, the cells were washed three times with prewarmed PBS, and fresh medium containing 10 μM of DCFH-DA was added. After 30 min of incubation, the cells were washed again with prewarmed PBS, fresh medium was added, and the cells were imaged using an inverted fluorescence microscope (Leica, Wetzlar, Germany). Images of live cells were acquired in six different fields. ImageJ software was used to analyze the images.

A549 cells [7] = assay: Lipid peroxide (LPO) content; type: cell-based, human; conditions: 48 h, Erastin 2.5 µM, Compound 53 50 µM, 2-AAPA 20 µM, alone or combined
Description: A549 cells were seeded in 10 cm dishes at a density of 2 × 10^6 cells per dish and cultured until they reached 40–60% confluence. […] Lipid peroxidation (LPO) levels were measured using a Lipid Peroxide (LPO) Content Assay Kit (Solarbio, China) following the manufacturer’s instructions.

human NFS1 [8] = target: T3, human NFS1; assay: NFS1 inhibition assay (H2S-producing, methylene blue); type: biochemical; conditions: for inhibition of NFS1: at 100 µM; for IC50: recombinant human NFS1Δ1-55, 1 mM cysteine, n = 4, read-out: IC50, NFS1 activity
Description: The 42 candidate compounds were tested for their inhibitory effects on human NFS1 using an in vitro H2S-producing assay. […] Subsequently, the effects of the selected compounds (100 µM) on human NFS1 activity were evaluated.
The activity of NFS1 was determined using a methylene blue assay as described previously, with some modifications. Briefly, reaction mixtures (200 μL) containing 50 mM of Tris-HCl (pH 8.0), 10 μM of PLP, 1 mM of DTT, and 10 μg of NFS1 were preincubated at 37 °C for 3 min. The reaction was then initiated by adding 1 mM of cysteine. After 15 min of incubation at 37 °C, the reaction was quenched by adding 25 μL of 20 mM N,N-dimethyl-p-phenylenediamine in 7.2 M of HCl and 25 μL of 30 mM FeCl3 in 1.2 M of HCl. Subsequently, the reaction mixtures were incubated for another 15 min at 37 °C, followed by centrifugation at 12,000 rpm for 10 minutes to remove the precipitates. The absorbance of the supernatant was measured at 670 nm. A reaction mixture without the substrate cysteine was used as the negative control. The H2S concentration was calculated based on a standard curve prepared using various concentrations of sodium sulfide (Na2S).
For the NFS1 inhibition assays, all test compounds were dissolved in dimethyl sulfoxide (DMSO) to prepare 10 mM stock solutions, which were stored at −80 °C. The stock solutions were diluted to the appropriate concentrations with 50 mM of Tris-HCl (pH 8.0) as required for the experiments. A reaction mixture containing DMSO but no test compounds was used as a negative control. The dose-dependent effects of the inhibitors on NFS1 activity were determined using the methylene blue assay described above. The IC50 values of the inhibitors were calculated by adding different concentrations of the inhibitors to the enzyme reaction mixtures.

T3 sequence (Q9Y697 56-457): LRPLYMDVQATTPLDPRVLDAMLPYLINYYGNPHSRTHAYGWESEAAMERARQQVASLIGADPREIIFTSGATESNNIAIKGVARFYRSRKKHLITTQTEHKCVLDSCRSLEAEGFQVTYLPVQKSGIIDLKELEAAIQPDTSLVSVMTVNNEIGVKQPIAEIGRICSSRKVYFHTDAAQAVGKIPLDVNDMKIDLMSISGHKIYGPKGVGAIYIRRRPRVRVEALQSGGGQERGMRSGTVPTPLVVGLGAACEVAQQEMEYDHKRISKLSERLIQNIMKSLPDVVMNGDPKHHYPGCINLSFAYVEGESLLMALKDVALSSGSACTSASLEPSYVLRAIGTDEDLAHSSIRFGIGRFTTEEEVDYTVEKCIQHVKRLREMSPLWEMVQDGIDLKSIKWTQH
T2 sequence (P32929 whole entry): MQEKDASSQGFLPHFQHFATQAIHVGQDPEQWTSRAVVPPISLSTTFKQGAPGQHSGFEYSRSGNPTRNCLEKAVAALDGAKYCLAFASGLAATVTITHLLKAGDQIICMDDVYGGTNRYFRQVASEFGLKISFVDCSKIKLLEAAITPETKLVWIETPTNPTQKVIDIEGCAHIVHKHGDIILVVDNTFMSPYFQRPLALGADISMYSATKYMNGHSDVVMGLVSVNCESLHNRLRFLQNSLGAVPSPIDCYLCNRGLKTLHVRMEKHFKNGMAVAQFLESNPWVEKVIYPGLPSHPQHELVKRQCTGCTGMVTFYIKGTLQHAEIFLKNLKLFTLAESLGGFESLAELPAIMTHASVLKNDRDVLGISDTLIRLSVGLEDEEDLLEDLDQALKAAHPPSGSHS

Structure (SMILES): N[C@@H]1CON=C1O [D-cycloserine]
IC50 [1]: ~29 µM

inhibitory effect on CBS [2]: no significant inhibitory effects
inhibitory effect on CSE [3]: no significant inhibitory effects
IC50 (A549 cells [4]): 27.7 ± 1.99 µM
Structure (SMILES): COc1cc(/C=N/NC(=O)CSc2nnc(SCc3ccccc3)s2)cc(OC)c1O [Compound 56]
IC50 (BEAS-2B cells): 78.4 ± 2 µM

Structure (SMILES): COCC1(CO)C(=O)C2CCN1CC2 (stereo not shown) [APR-246, eprenetapopt]
concentrations required to inhibit NFS1 (human NFS1 [5]): millimolar concentrations

Structure (SMILES): CCOc1ccccc1-n1c(C(C)N2CCN(C(=O)COc3ccc(Cl)cc3)CC2)nc2ccccc2c1=O (stereo not shown) [Erastin]
effect on cell viability (A549 cells [4]; A549 cells, 2.5 µM): did not significantly affect cell viability
intracellular ROS levels (A549 cells [6]): significantly increased intracellular ROS levels; also recorded: significantly elevated cellular ROS levels
intracellular lipid peroxide (LPO) levels (A549 cells [7]): elevated LPO levels

inhibition of NFS1 (human NFS1 [8]): approximately 50%
IC50 (human NFS1 [8]): 153 ± 3.42 µM
Structure (SMILES): COc1cc(/C=N\NC(=O)Cc2nnc(NC(=O)c3ccc([N+](=O)[O-])cc3)s2)ccc1O [Compound 1]

IC50 (A549 cells [4]): ~20 µM
Structure (SMILES): CC(=O)NC(CSC(=O)Nc1ccc(NC(=O)SCC(NC(C)=O)C(=O)O)cc1)C(=O)O (stereo not shown) [Compound 2-AAPA, 2-Acetylamino-3-[4-(2-acetylamino-2-carboxyethylsulfanylcarbonylamino)phenylcarbamoylsulfanyl] propionic acid]
intracellular ROS levels (A549 cells [6]): significantly elevated cellular ROS levels
intracellular lipid peroxide (LPO) levels (A549 cells [7]): no significant changes

inhibition of NFS1 (human NFS1 [8]): approximately 50%
IC50 (human NFS1 [8]): 141 ± 3.49 µM
Structure (SMILES): O=c1cc(-c2ccc(O)c(O)c2)oc2cc(O[C@H]3O[C@H](CO)[C@@H](O)[C@@H](O)[C@@H]3O)cc(O)c12 [Compound 37]
